The results in this text go back to PubChem BioAssay (NCI).

What all share (assay): DTP human tumour cell line panel, 48 h
Test [1] deals with SN12C renal.
Test [2] concerns RXF 393 renal.
Test [3] relates to NCI-H23 lung.
Test [4] has as its system M14 melanoma.
Test [5] deals with MALME-3M melanoma.
Test [6] deals with SNB-75 CNS.
For test [7], the system named is HCT-116 colon.
In test [8] the test system is KM12 colon.
The test system of test [9] is SK-OV-3 ovarian.
Test [10] relates to SNB-19 CNS.
Test [11] relates to ACHN renal.
Test [12] has as its system SK-MEL-5 melanoma.
Test [13] deals with 786-0 renal.
The subject of test [14] is HOP-62 NSCLC.
In test [15] the test system is UACC-62 melanoma.
Test [16] concerns MDA-N.
In test [17] the test system is SF-295 CNS.
Test [18] has as its system OVCAR-5 ovarian.
Test [19] relates to UO-31 renal.
Test [20] concerns BT-549 breast.

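Following 48 hours of exposure in 96-well plates, responses at five concentrations were used to interpolate endpoints linearly. TGI is the concentration that stops growth completely.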 Bounds are passed on as bounds.

For the compound `CN(C)CCCN1c2ccc([N+](=O)[O-])cc2CCc2cccc([N+](=O)[O-])c21`, the TGI in [1] is 28.6 µM; in test [2], 22.8 µM; in test [3], 31.2 µM; in test [4], 28 µM; in test [5], 28 µM; in [6], 26.5 µM. Moreover, the TGI in test [7] was 27.3 µM; in test [8] it was 28.9 µM; in test [9], 30.8 µM; in [10], 36.1 µM; in test [11], 31.5 µM; in test [12], 30.2 µM. Further, the TGI in [13] was 26.5 µM; in [14], 27 µM; in test [15], 10.4 µM; in test [16], 29.2 µM; in test [17], 28.2 µM; in test [18], 33.3 µM.

For `Nn1c(CCCCCCCCc2nnc(COc3ccc(Cl)cc3Cl)n2N)nnc1COc1ccc(Cl)cc1Cl`, the TGI in [1], in [2], in test [3], in test [4], in [5] and in test [19] was above 100 µM in each case. Further, the TGI in [7] is 86.8 µM; in test [8], above 100 µM; in test [10] it was above 100 µM; in [20], above 100 µM; in [11], above 100 µM; in [12], above 100 µM. The TGI in test [13], in test [15], in test [16] and in [18] was above 100 µM in each case.

Take `Cc1ccc(Cc2n[nH]c(=O)[nH]2)cc1`: the concentration for total growth inhibition (TGI) in [1], in test [3], in test [4], in test [5], in test [19] and in [6] was above 100 µM in each case. Moreover, the TGI in [7], in [8], in test [9], in test [10], in test [20] and in test [11] was above 100 µM in each case. The TGI in [12], in test [13], in test [14], in test [15], in [16] and in test [17] was above 100 µM in each case. In addition, the TGI in [18] is above 100 µM.

For the compound `COc1ccc(/C=c2/sc3n(c2=O)C(c2ccccc2)C2(O)CCCCC2N=3)cc1` (configuration not stated), the TGI in test [3], in test [4], in test [5], in test [19], in test [6] and in test [7] was above 12.5 µM in each case. Besides, the TGI in [10], in test [20], in test [11], in test [12], in test [13] and in test [14] was above 12.5 µM each time. Moreover, the TGI in test [15], in test [16] and in test [18] was above 12.5 µM throughout.

On to `O=C(Nc1ccccc1)OCCN=C1c2ccccc2C(Br)C(Br)c2ccccc21` (configuration not stated), for which the TGI is 17.5 µM in test [1]; 9.69 µM in test [2]; 25.9 µM in test [3]; 12.4 µM in [4]; 16.3 µM in test [5]; 3.61 µM in test [19]. Also, the TGI is 26.5 µM in test [6]; 13.3 µM in test [7]; 18.7 µM in test [8]; 22.5 µM in [9]; 27 µM in test [10]; 20.6 µM in test [11]. Further, the TGI in test [12] is 16.9 µM; in test [13], 8.18 µM; in [14], 19.9 µM; in test [15] it was 17.6 µM; in [16], 17.1 µM; in test [17] it was above 31.6 µM. Also, in test [18], the TGI was above 31.6 µM.

`COc1cc2c(cc1OC)[C@@H]1[C@H](C#N)C(=O)C(C)(C)N1CC2`: the TGI in test [1], in [3], in test [4], in test [5], in test [19] and in test [7] was above 100 µM throughout. Besides, the TGI in [8], in [9], in [10], in [20], in test [11] and in test [12] was above 100 µM throughout. Also, the TGI in test [13], in [15], in test [16], in test [17] and in [18] was above 100 µM in each case.

With `Cc1c(-c2ccc(O)cc2)n(CCCCCCNCCOC(=O)NCCCc2ccc(N(CCCl)CCCl)cc2)c2ccc(O)cc12`, the TGI in test [1] is 6.22 µM; in test [3] it was 3.45 µM; in test [4], 3 µM; in test [5], 3.12 µM; in test [6] it was 14.1 µM; in [7] it was 2.94 µM. The TGI in [8] was found to be 3.75 µM; in [9] it was 22.4 µM; in test [10] it was 28.1 µM; in test [20], 26.7 µM; in test [11], 14.1 µM; in [12] it was 4.06 µM. Further, the TGI was 2.97 µM in test [13]; 8.57 µM in test [14]; 3.26 µM in [15]; 3.47 µM in test [16]; 6.85 µM in [17]; 28.9 µM in test [18].

With `COc1c2c(cc3c1C(=O)c1c(O)cccc1C3=O)CC(O)CC2` (configuration not stated), the TGI in test [1] was above 100 µM; in test [3] it was 47 µM; in test [4], above 100 µM; in test [5], above 100 µM; in test [19] it was above 100 µM; in test [6] it was above 100 µM. Further, the TGI was above 100 µM in test [7]; above 100 µM in [8]; 59 µM in [9]; 57.1 µM in test [10]; 43.1 µM in test [20]; above 100 µM in test [11]. Besides, the TGI in [12] is above 100 µM; in test [13] it was above 100 µM; in test [14], 46 µM; in [15] it was above 100 µM; in test [16], above 100 µM; in test [17], 46.5 µM. The TGI in [18] is above 100 µM.

For the compound `C=CC[C@H]1O[Si](C(C)(C)C)(C(C)(C)C)[C@H](C)[C@H]1C`, the TGI in test [1], in test [3], in [4], in [5], in test [19] and in test [6] was above 100 µM throughout. The TGI in test [7], in test [8], in test [9], in test [10], in test [20] and in test [11] was above 100 µM throughout. Moreover, the TGI in test [12], in [13], in [14], in test [15], in test [16] and in test [17] was above 100 µM throughout. The compound further displayed a TGI in test [18] above 100 µM.

On to `CN(Cc1cnc2nc(N)nc(N)c2n1)c1ccc(C(=O)NCCS(=O)(=O)O)cc1`, for which the TGI in test [1], in test [3], in [4], in test [5], in test [19] and in test [6] was above 100 µM each time. The TGI in test [7], in [8], in test [9], in [10], in test [20] and in test [11] was above 100 µM throughout. Moreover, the TGI in [12], in test [13], in test [14], in [15], in test [16] and in test [17] was above 100 µM in each case. The compound also registered a TGI in test [18] above 100 µM.

Take `NC1c2c(Br)sc(N3CCCC3)c2C(=O)C1O` (configuration not stated): the TGI in [1], in test [3], in [4], in test [5], in test [19] and in [6] was above 50 µM throughout. The TGI in [7], in [8], in test [9], in test [10], in test [20] and in test [11] was above 50 µM each time. Besides, the TGI in test [12], in test [13], in [15], in test [16], in test [17] and in test [18] was above 50 µM each time.

With `C/C=C/C(C#N)(/C=C/c1ccccc1)OP1(=O)OC(c2ccccc2)C(C)N1C` (configuration not stated), the TGI in test [1] was found to be 35.5 µM; in test [2], 38.5 µM; in test [4], 37.1 µM; in test [5], 38.8 µM; in test [19], 32.6 µM; in test [6], 39.4 µM. In addition, the TGI in test [7] was found to be 31.3 µM; in test [8], 36.7 µM; in [9] it was 55.3 µM; in [10], 42.1 µM; in test [11], 68.7 µM; in test [12], 32.1 µM. For the same compound, the TGI in [13] is 31.7 µM; in test [14] it was 36.1 µM; in test [15], 34.5 µM; in [16] it was 39 µM; in test [17], 31 µM; in [18] it was 43.6 µM.

`CN(CC(=O)N1CC(CCl)c2ccc([N+](=O)[O-])cc21)CC(=O)N1CC(CCl)c2ccc([N+](=O)[O-])cc21` (configuration not stated): the TGI in [1], in test [3], in test [4], in test [5], in test [19] and in test [6] was above 100 µM throughout. Further, the TGI in [7], in [8], in [9], in [10], in test [20] and in test [11] was above 100 µM each time. Also, the TGI in test [12], in [13], in test [14], in test [15], in test [16] and in [17] was above 100 µM throughout. Further, the total growth inhibition concentration (TGI) in test [18] is above 100 µM.

`O=C1N(C2CCCCC2)C(=O)N1C1CCCCC1`: the TGI in test [1] is 16.1 µM; in test [3] it was 23.8 µM; in [4] it was 20.7 µM; in test [5], 11.7 µM; in [19], 0.199 µM; in [6], above 100 µM. Further, the TGI in test [7] is 14.1 µM; in test [8], 15.7 µM; in test [9] it was 59.9 µM; in test [10] it was 29.9 µM; in test [20] it was 5.29 µM; in [11] it was 12 µM. Moreover, the TGI in [12] is 4.88 µM; in test [13], above 67.6 µM; in test [14], 31.5 µM; in test [15] it was 1.9 µM; in [16] it was 17 µM; in [17], 14.3 µM. The TGI in [18] was found to be 30.2 µM.

Turning to `O=C(NC(=S)Nc1ccc(Br)cc1)c1ccc2c(c1)Sc1ccccc1S2`, the TGI in [1] was 38.4 µM; in test [3], 45.4 µM; in [4], 42.9 µM; in [5] it was 48.5 µM; in test [19], 26.6 µM; in test [6], 29.2 µM. Besides, the TGI was 51 µM in test [7]; 74.8 µM in test [8]; 33 µM in test [9]; 54.4 µM in [10]; 60.6 µM in [20]; 34.2 µM in [11]. The TGI is above 100 µM in test [12]; 30.6 µM in test [13]; 31 µM in test [14]; 74.8 µM in test [15]; above 100 µM in test [16]; 38.6 µM in [17]. In test [18], the TGI was found to be 40.2 µM.
